This is an account of results in ChEMBL document CHEMBL1137324, “Novel selective orally active CRTH2 antagonists for allergic inflammation developed from in silico derived hits” (J Med Chem, 2006).

SMILES strings stand for the structures. A value given as a limit tells only on which side of the number the result lay.

The target in test [1] is T1, Prostaglandin D2 receptor 2 (Homo sapiens, UniProt Q9Y5Y4).
T1 sequence (Q9Y5Y4 whole entry): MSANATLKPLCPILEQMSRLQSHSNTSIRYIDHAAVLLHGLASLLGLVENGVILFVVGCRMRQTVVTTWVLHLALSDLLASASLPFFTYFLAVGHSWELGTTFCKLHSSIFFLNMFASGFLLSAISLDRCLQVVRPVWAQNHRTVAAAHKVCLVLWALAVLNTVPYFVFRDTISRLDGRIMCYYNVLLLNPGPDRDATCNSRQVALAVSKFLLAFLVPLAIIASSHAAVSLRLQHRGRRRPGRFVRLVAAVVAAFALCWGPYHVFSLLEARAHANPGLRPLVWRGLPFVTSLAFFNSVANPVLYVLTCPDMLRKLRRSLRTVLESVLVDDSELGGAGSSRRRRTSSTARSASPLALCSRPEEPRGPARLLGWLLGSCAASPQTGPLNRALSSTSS
Kind of test: Antagonist activity against CRTH2 receptor measured as inhibition of PGD2-induced beta-arrestin translocation in HEK293 cells by BRET assay. It counts as functional, cell-based. In general terms: Bioluminescence resonance energy transfer reports proximity on the nanometre scale.

Test [2] has as its target T1, Prostaglandin D2 receptor 2. Kind of test: Displacement of [3H]PGD2 from human CRTH2 receptor expressed in HEK293 cells. It counts as cell-based.
A further test deals with Mus musculus. Kind of test: Inhibition of peribronchial eosinophilia in BALB/c mouse at 100 mg/kg, po relative to control. It counts as functional.

The term IC50 denotes the concentration at which inhibition is half-maximal. The low end stands for higher potency, the high end for lower potency. Broadly, the inhibition in vivo is the drop in the measured response relative to a control, in per cent. High values mean a response far below the control, low ones a response near the control.

In the case of `O=C(O)COc1ccc(Br)cc1/C=N/Nc1cccc2cccnc12`, the IC50 in test [1] was 643 nM; in test [2], 54 nM.

Take `O=Cc1ccccc1OCC(=O)O`: the figures for the IC50 in test [1] and in test [2] were 50000 nM and 1970 nM, respectively.

For `O=C(O)COc1ccc(Br)cc1C(=O)c1ccno1`, the IC50 in test [1] stood at 2650 nM; in test [2], 391 nM.

In the case of `O=C(O)COc1ccc(Br)cc1C(=O)c1cnn(-c2ccccc2Br)c1`, the IC50 in test [1] amounted to 12 nM; in test [2] it was 1.9 nM.

On to `COc1ccc(OCC(=O)O)c(C(=O)c2cnn(-c3ccccc3)c2)c1`, for which the half-inhibitory concentration (IC50) in test [1] came out at 4200 nM; in test [2] it was 151 nM.

The compound `C[C@]12CCC(=O)C=C1CC[C@@H]1[C@@H]2[C@@H](O)C[C@@]2(C)[C@H]1CC[C@]2(O)C(=O)CO` [HYDROCORTISONE] came in with an inhibition in vivo at 100 mg/kg in the test on Mus musculus of 94%.

With `O=C(O)COc1ccc(-c2ccc(Cl)cc2)cc1C(=O)c1cnn(-c2ccccc2)c1`, the IC50 in test [1] turned out to be 448 nM; in test [2], 37 nM.

With `CCOC(=O)COc1ccc(Br)cc1C(=O)c1cnn(-c2ccccc2)c1`, the IC50 stood at 3000 nM in test [1] and 165 nM in test [2].

Regarding `O=C(O)COc1ccccc1/C=N/NC(=O)Cn1cnc2ccccc21`, the IC50 is 81700 nM in test [1] and 12800 nM in test [2].

Take `COc1ccc(-c2cnnc(N/N=C/c3ccccc3OCC(=O)O)n2)cc1`: the half-inhibitory concentration (IC50) in test [1] was greater than 100000 nM; in test [2], 1580 nM.

For `Cc1cc(C(=O)N/N=C/c2ccccc2OCC(=O)O)[nH]n1`, the 50% inhibitory concentration (IC50) in test [1] was greater than 100000 nM; in test [2], 11200 nM.

For `CC(=O)c1cc(Br)ccc1OCC(=O)O`, the half-inhibitory concentration (IC50) in test [1] amounted to 4520 nM; in test [2] it was 510 nM.

In the case of `O=C(O)COc1ccc(Br)cc1/C=N/Nc1ccccn1`, the IC50 in test [1] was determined as 3490 nM; in test [2], 255 nM.

With `O=C(O)COc1ccc([N+](=O)[O-])cc1C(=O)c1cnn(-c2ccccc2)c1`, the half-inhibitory concentration (IC50) in test [1] came to 236 nM; in test [2], 47 nM.

With `O=C(O)COc1ccccc1C(=O)c1cnn(-c2ccccc2)c1`, the IC50 came to 5350 nM in test [1] and 510 nM in test [2].

For the compound `O=C(O)COc1ccc(F)cc1C(=O)c1cnn(-c2ccccc2)c1`, the figures for the IC50 in test [1] and in test [2] were 1320 nM and 108 nM, respectively.

On to `O=Cc1cc(Br)ccc1OCC(=O)O`, for which the values for the IC50 in test [1] and in test [2] were 481 nM and 124 nM, respectively.

In the case of `O=C(O)COc1ccc(Br)cc1/C=N/Nc1nncc(-c2ccccc2)n1`, the half-inhibitory concentration (IC50) in test [1] was 3210 nM; in test [2], 89 nM.

For the compound `O=C(O)COc1ccc(-c2cc(F)cc(F)c2)cc1C(=O)c1cnn(-c2ccccc2)c1`, the values for the IC50 in test [1] and in test [2] were 147 nM and 13 nM, respectively.

`O=C(O)COc1ccc(Br)cc1CO`: the values for the IC50 in test [1] and in test [2] were 6870 nM and 886 nM, respectively.

As for `O=C(O)COc1ccccc1/C=N/NC(=O)COc1ccc(Cl)cc1Cl`, the results for the half-maximal inhibitory concentration (IC50) in test [1] and in test [2] were 6320 nM and 555 nM, respectively.

Regarding `O=C(O)COc1ccc(Br)cc1C(=O)c1cnn(-c2ccc(Cl)cc2)c1`, the values for the IC50 in test [1] and in test [2] were 17 nM and 1.5 nM, respectively.

Consider `O=C(O)COc1ccc(Br)cc1C(=O)c1cnn(-c2cccc(Br)c2)c1`, for which the IC50 in test [1] was found to be 31 nM; in test [2], 3.4 nM.

On to `Cc1ccc(OCC(=O)O)c(C(=O)c2cnn(-c3ccccc3)c2)c1`, for which the half-inhibitory concentration (IC50) in test [1] stood at 587 nM; in test [2], 48 nM.

Consider `O=C(O)COc1ccc(Cl)cc1C(=O)c1cnn(-c2ccccc2)c1`, for which the IC50 in test [1] turned out to be 185 nM; in test [2] it was 15 nM.

Turning to `Cc1ccc(NCC(=O)N/N=C/c2ccccc2OCC(=O)O)cc1`, the IC50 is 60200 nM in test [1] and 3660 nM in test [2].

`COc1ccc(-n2cc(C(=O)c3cc(Br)ccc3OCC(=O)O)cn2)cc1`: the IC50 in test [1] came to 53 nM; in test [2], 3.6 nM.

On to `O=C(O)COc1ccc(Br)cc1C(=O)c1ccccc1`, for which the 50% inhibitory concentration (IC50) worked out at 437 nM in test [1] and 53 nM in test [2].

For `CC(C)(C)c1cc(Br)ccc1OCC(=O)O`, the figures for the half-maximal inhibitory concentration (IC50) in test [1] and in test [2] were 423 nM and 61 nM, respectively.

As to `O=C(O)COc1ccc(Br)cc1C(=O)c1cnn(-c2ccc(Br)cc2)c1`, the IC50 came to 13 nM in test [1] and 1.4 nM in test [2].

Consider `O=C(O)COc1ccc(-c2ccccc2)cc1C(=O)c1cnn(-c2ccccc2)c1`, for which the concentration for half-maximal inhibition (IC50) in test [1] worked out at 485 nM; in test [2] it was 42 nM.
